Measured values published in PubChem BioAssay AID248 (DTP/NCI, 2004).
“And” between values parts separate entries of the source, which are not always exact repeats. Equal values may be shown once. Inconclusive results and toxic doses are left out. Cut-off read from the data, not from the text of the source: active = T/C of 150% or more; inactive = T/C below 125%.

Test system: L1210 leukemia ip in BDF1 mice, survival T/C
Assay: NCI In Vivo Anticancer Drug Screen. Data for tumor model L1210 Leukemia (intraperitoneal) in B6D2F1 (BDF1) mice
Settings: higher = longer survival
Procedure, shortened: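 Tumor cells were implanted, animals were treated, and survival was followed. The result divides the treated measurement by the vehicle-control measurement.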

[1] = endpoint: mean survival time, dose: 100.0 mg/kg/injection, schedule: Q01DX009 (ip), vehicle: saline
[2] = endpoint: mean survival time, dose: 100.0 mg/kg/injection, schedule: Q04DX003 (ip), vehicle: saline
[3] = endpoint: mean survival time, dose: 50.0 mg/kg/injection, schedule: Q01DX001 (ip), vehicle: carboxymethylcellulose (CMC)
[4] = endpoint: mean survival time, dose: 100.0 mg/kg/injection, schedule: Q01DX001 (ip), vehicle: carboxymethylcellulose (CMC)
[5] = endpoint: mean survival time, dose: 200.0 mg/kg/injection, schedule: Q01DX001 (ip), vehicle: carboxymethylcellulose (CMC)
[6] = endpoint: mean survival time, dose: 400.0 mg/kg/injection, schedule: Q01DX001 (ip), vehicle: carboxymethylcellulose (CMC)
[7] = endpoint: mean survival time, dose: 100.0 mg/kg/injection, schedule: Q01DX001 (ip), vehicle: saline
[8] = endpoint: mean survival time, dose: 200.0 mg/kg/injection, schedule: Q01DX001 (ip), vehicle: saline
[9] = endpoint: mean survival time, dose: 100.0 mg/kg/injection, schedule: Q01DX009 (ip), vehicle: Klucel (hydroxypropylcellulose) (HPC)
[10] = endpoint: mean survival time, dose: 200.0 mg/kg/injection, schedule: Q01DX009 (ip), vehicle: Klucel (hydroxypropylcellulose) (HPC)
[11] = endpoint: mean survival time, dose: 400.0 mg/kg/injection, schedule: Q01DX009 (ip), vehicle: Klucel (hydroxypropylcellulose) (HPC)
[12] = endpoint: mean survival time, dose: 12.5 mg/kg/injection, schedule: Q01DX009 (ip), vehicle: Klucel (hydroxypropylcellulose) (HPC)
[13] = endpoint: mean survival time, dose: 25.0 mg/kg/injection, schedule: Q01DX009 (ip), vehicle: Klucel (hydroxypropylcellulose) (HPC)
[14] = endpoint: mean survival time, dose: 100.0 mg/kg/injection, schedule: Q04DX003 (ip), vehicle: saline with Tween-80
[15] = endpoint: mean survival time, dose: 100.0 mg/kg/injection, schedule: Q04DX003 (ip), vehicle: Klucel (hydroxypropylcellulose) (HPC)
[16] = endpoint: mean survival time, dose: 200.0 mg/kg/injection, schedule: Q04DX003 (ip), vehicle: Klucel (hydroxypropylcellulose) (HPC)
[17] = endpoint: mean survival time, dose: 400.0 mg/kg/injection, schedule: Q04DX003 (ip), vehicle: Klucel (hydroxypropylcellulose) (HPC)
[18] = endpoint: mean survival time, dose: 400.0 mg/kg/injection, schedule: Q01DX001 (ip), vehicle: saline

Measured: T/C

Cc1ccc2c(c1)CN(C13CC4CC(CC(C4)C1)C3)CO2
inactive: endpoint: mean survival time, dose: 100.0 mg/kg/injection, schedule: Q04DX003 (ip), vehicle: saline sonified 91 % of control | endpoint: mean survival time, dose: 200.0 mg/kg/injection, schedule: Q04DX003 (ip), vehicle: saline sonified 102 % of control | endpoint: mean survival time, dose: 400.0 mg/kg/injection, schedule: Q04DX003 (ip), vehicle: saline sonified 93 % of control

CCOC(=O)c1csc(C)n1
inactive: [1] 103 % of control | [2] 99 % of control | endpoint: mean survival time, dose: 200.0 mg/kg/injection, schedule: Q01DX009 (ip), vehicle: saline 102 % of control | endpoint: mean survival time, dose: 200.0 mg/kg/injection, schedule: Q04DX003 (ip), vehicle: saline 96 % of control | endpoint: mean survival time, dose: 400.0 mg/kg/injection, schedule: Q01DX009 (ip), vehicle: saline 109 % of control | endpoint: mean survival time, dose: 400.0 mg/kg/injection, schedule: Q04DX003 (ip), vehicle: saline 92 % of control

O=C1C(=O)c2ccccc2C(O)=C1CCCCCCCCCC[S+](CCO)CCO
inactive: endpoint: mean survival time, dose: 100.0 mg/kg/injection, schedule: Q01DX001 (ip), vehicle: other 104 % of control | endpoint: mean survival time, dose: 200.0 mg/kg/injection, schedule: Q01DX001 (ip), vehicle: other 101 % of control

COC(=O)c1cc(C)cc(NS(=O)(=O)c2ccc(C)cc2)c1C
inactive: [3] 89 % of control | [4] 86 % of control | [5] 94 % of control | [6] 89 % of control

C=C1CCC2C(O)CCN2C1=O (stereo not given)
inactive: endpoint: mean survival time, dose: 25.0 mg/kg/injection, schedule: Q01DX001 (ip), vehicle: saline 103 % of control | endpoint: mean survival time, dose: 50.0 mg/kg/injection, schedule: Q01DX001 (ip), vehicle: saline 106 % of control | [7] 109 % of control | [8] 104 % of control

CCCCCCC(C)N(CC)CCOC(=O)c1ccc(N)cc1 (stereo not given)
inactive: endpoint: mean survival time, dose: 75.0 mg/kg/injection, schedule: Q01DX001 (ip), vehicle: other 94 % of control | endpoint: mean survival time, dose: 150.0 mg/kg/injection, schedule: Q01DX001 (ip), vehicle: other 98 % of control

CN(Cc1ccccc1Cl)C(=O)Nc1cccc(Cl)c1
inactive: [9] 97 % of control | [10] 103 % of control | [11] 114 % of control

Clc1ncc(Br)c(Cl)n1
inactive: endpoint: mean survival time, dose: 6.25 mg/kg/injection, schedule: Q01DX009 (ip), vehicle: Klucel (hydroxypropylcellulose) (HPC) 102 % of control | [12] 102 % of control | [13] 101 % of control | endpoint: mean survival time, dose: 100.0 mg/kg/injection, schedule: Q04DX003 (ip), vehicle: other 119 % of control | endpoint: mean survival time, dose: 200.0 mg/kg/injection, schedule: Q04DX003 (ip), vehicle: other 90 % of control

CC(C)(CO)Nc1ccccc1
inactive: [14] 114 % of control | endpoint: mean survival time, dose: 200.0 mg/kg/injection, schedule: Q04DX003 (ip), vehicle: saline with Tween-80 90 % of control | endpoint: mean survival time, dose: 400.0 mg/kg/injection, schedule: Q04DX003 (ip), vehicle: saline with Tween-80 97 % of control

CN(C)S(=O)(=O)Oc1cccc([N+](=O)[O-])c1
inactive: endpoint: mean survival time, dose: 25.0 mg/kg/injection, schedule: Q04DX003 (ip), vehicle: saline with Tween-80 100 % of control | endpoint: mean survival time, dose: 50.0 mg/kg/injection, schedule: Q04DX003 (ip), vehicle: saline with Tween-80 104 % of control | [14] 100 % of control

CC(Cl)CN(C)c1ccc2ccccc2c1 (stereo not given)
inactive: endpoint: median survival time, dose: 100.0 mg/kg/injection, schedule: Q01DX009 (ip), vehicle: Klucel (hydroxypropylcellulose) (HPC) 97 % of control | endpoint: median survival time, dose: 200.0 mg/kg/injection, schedule: Q01DX009 (ip), vehicle: Klucel (hydroxypropylcellulose) (HPC) 87 % of control

COc1c2c(cc3c1C(Cl)N(C)CC3)OCO2 (stereo not given)
inactive: endpoint: mean survival time, dose: 25.0 mg/kg/injection, schedule: Q01DX009 (ip), vehicle: saline 98 % of control | endpoint: mean survival time, dose: 25.0 mg/kg/injection, schedule: Q04DX003 (ip), vehicle: saline 103 % of control | endpoint: mean survival time, dose: 50.0 mg/kg/injection, schedule: Q01DX009 (ip), vehicle: saline 104 % of control | endpoint: mean survival time, dose: 50.0 mg/kg/injection, schedule: Q04DX003 (ip), vehicle: saline 97 % of control | [2] 98 % of control and 102 % of control

CC(=N/Nc1ccccc1)/C(C)=N/Nc1ccccc1
inactive: endpoint: mean survival time, dose: 100.0 mg/kg/injection, schedule: Q01DX001 (ip), vehicle: Klucel (hydroxypropylcellulose) (HPC) 101 % of control | [9] 88 % of control | endpoint: mean survival time, dose: 200.0 mg/kg/injection, schedule: Q01DX001 (ip), vehicle: Klucel (hydroxypropylcellulose) (HPC) 91 % of control | [10] 95 % of control | endpoint: mean survival time, dose: 400.0 mg/kg/injection, schedule: Q01DX001 (ip), vehicle: Klucel (hydroxypropylcellulose) (HPC) 102 % of control | [11] 98 % of control

Ic1ccc(Oc2ccc(I)cc2)cc1
inactive: [15] 113 % of control | [16] 90 % of control | endpoint: mean survival time, dose: 222.0 mg/kg/injection, schedule: Q01DX Z (ip), vehicle: methylcellulose (MC) 92 % of control | endpoint: mean survival time, dose: 333.0 mg/kg/injection, schedule: Q01DX Z (ip), vehicle: methylcellulose (MC) 92 % of control | [17] 98 % of control | endpoint: mean survival time, dose: 500.0 mg/kg/injection, schedule: Q01DX Z (ip), vehicle: methylcellulose (MC) 100 % of control

CN(CCCl)Cc1ccc(-c2c3ccccc3cc3c2ccc2ccccc23)cc1
inactive: endpoint: mean survival time, dose: 25.0 mg/kg/injection, schedule: Q01DX001 (ip), vehicle: carboxymethylcellulose (CMC) 97 % of control | [3] 89 % of control | [4] 92 % of control

COc1cc2c(cc1O)CCCC2=O
inactive: endpoint: mean survival time, dose: 50.0 mg/kg/injection, schedule: Q01DX009 (ip), vehicle: saline with Tween-80 96 % of control | endpoint: mean survival time, dose: 100.0 mg/kg/injection, schedule: Q01DX009 (ip), vehicle: saline with Tween-80 93 % of control | endpoint: mean survival time, dose: 200.0 mg/kg/injection, schedule: Q01DX009 (ip), vehicle: saline with Tween-80 96 % of control

S=P(NCCNP(=S)(N1CC1)N1CC1)(N1CC1)N1CC1
inactive: endpoint: mean survival time, dose: 1.5 mg/kg/injection, schedule: Q01DX015 (ip), vehicle: saline 96 % of control | endpoint: mean survival time, dose: 3.0 mg/kg/injection, schedule: Q01DX015 (ip), vehicle: saline 98 % of control | endpoint: mean survival time, dose: 6.0 mg/kg/injection, schedule: Q01DX015 (ip), vehicle: saline 101 % of control | endpoint: mean survival time, dose: 12.0 mg/kg/injection, schedule: Q01DX009 (ip), vehicle: carboxymethylcellulose (CMC) 104 % of control | endpoint: mean survival time, dose: 12.0 mg/kg/injection, schedule: Q01DX015 (ip), vehicle: saline 102 % of control | [12] 108 % of control | endpoint: mean survival time, dose: 12.5 mg/kg/injection, schedule: Q01DX009 (ip), vehicle: saline 112 % of control | [13] 120 % of control | endpoint: mean survival time, dose: 25.0 mg/kg/injection, schedule: Q01DX009 (ip), vehicle: carboxymethylcellulose (CMC) 121 % of control | endpoint: mean survival time, dose: 50.0 mg/kg/injection, schedule: Q01DX009 (ip), vehicle: Klucel (hydroxypropylcellulose) (HPC) 97 % of control | endpoint: mean survival time, dose: 50.0 mg/kg/injection, schedule: Q01DX009 (ip), vehicle: carboxymethylcellulose (CMC) 115 % of control | [7] 106 % of control | endpoint: mean survival time, dose: 100.0 mg/kg/injection, schedule: Q01DX009 (ip), vehicle: carboxymethylcellulose (CMC) 109 % of control | [1] 120 % of control | [8] 104 % of control | [18] 120 % of control

O=C(CCc1ccc(N(CCCl)CCCl)cc1)NC1CCCC1
inactive: [15] 116 % of control | [16] 115 % of control | [17] 115 % of control

CCC[Si](C)(C)CCC
inactive: [7] 100 % of control | [8] 98 % of control | [18] 100 % of control

Cc1ccc(-c2nnc3c4ccccc4ccn23)cc1
inactive: [4] 93 % of control | [5] 93 % of control | [6] 91 % of control

CCN(CC)CCCC(C)NC(=O)c1cc(=O)[nH]c(=O)[nH]1 (stereo not given)
inactive: endpoint: mean survival time, dose: 25.0 mg/kg/injection, schedule: Q01DX009 (ip), vehicle: water 106 % of control | endpoint: mean survival time, dose: 50.0 mg/kg/injection, schedule: Q01DX009 (ip), vehicle: water 96 % of control | endpoint: mean survival time, dose: 100.0 mg/kg/injection, schedule: Q01DX009 (ip), vehicle: water 103 % of control and 91 % of control | endpoint: mean survival time, dose: 100.0 mg/kg/injection, schedule: Q04DX003 (ip), vehicle: water 104 % of control | endpoint: mean survival time, dose: 200.0 mg/kg/injection, schedule: Q04DX003 (ip), vehicle: water 101 % of control
